The values that follow come from US10106565B2 (priority 2008, dated 2018).

The test system of test [1] is CD4 T lymphocytes. The experiment in a line: Proliferation of CD4 T lymphocytes in PBMC induced by IL2 (CFSE dilution, flow cytometry). It is filed as cell-based, human. As to conditions: 20 μM dendrimer; PBMC with IL2; IL2 alone gives 70.2%. As to the method:
Peripheral blood samples are obtained from adult healthy volunteers through the Etablissement Français du Sang (Toulouse, France). Peripheral Blood Mononuclear Cells (PBMC) are isolated by Ficoll density gradient (Amersham Biosciences AB).
PBMC are cultured at a final concentration of 1.5×10^6 cells/mL in complete RPMI 1640 medium, i.e. supplemented with 10% of heat inactivated fetal calf serum (FCS) (Invitrogen), 1 mM sodium pyruvate (Invitrogen), 2 mM L-glutamine, 100 U/mL penicillin and 100 μg/mL streptomycin (Cambrex Bioscience). Proliferation is activated by 400 U/mL of interleukin 2 (IL2) (Sanofi-Aventis) (a “growth factor” for lymphocytes). […]
Proliferation of CD4 T lymphocytes is evaluated by flow cytometry by analyzing the intracellular dilution of a fluorescent probe: the 5,6-carboxyfluorescein diacetate N-succinimidylester (CFSE). […] Then, CFSE dilution is analyzed by flow cytometry to measure the proliferation CD4 T cells. After gating for CD4 positive cells (mouse anti-human CD4-PE-Cy5 clone 13B8.2, Beckman-Coulter), CFSE fluorescence intensities are analyzed, and the percentage of CD4 T cells which have proliferated during the culture is taken into account. […] The overall differences are evaluated by analysis of variance test (ANOVA) with Sigma Stat software (Systat Software).

Test [2] concerns CD4+ T cells. The test is described as follows: Intracellular detection of IL10 in CD4+ T cells after MLR. It counts as cell-based, human. Conditions: PBL:monocytes 4:1, 5 hours re-stimulation; compared to MLR with class-monocytes. The protocol:
Six days following the primary stimulation with one of the differently activated monocytes at a ratio of PBL:monocytes of 4:1, cells were restimulated with 10000 anti-CD 3/anti-CD28 beads for 5 hours (according to the technical description by J. P. Edwards et al., (2006) J Leukoc Biol 80, 1298-1307) and with 10 μg/mL Brefeldin A (Sigma-Aldrich) to inhibit cytokine secretion. Cells are then harvested, washed with PBS and incubated 15 minutes at 4° C. with mouse mAb anti-human CD4-PE (clone 13B8.2, Beckman-Coulter) in PBS with 5% FCS. Cells washed twice, are then fixed by 2% paraformaldehyde in PBS and permeabilized with 1% saponin in PBS. Intracellular staining is performed with AlloPhycoCyanin-conjugated rat anti-human IL10 (clone JES3-19F1, BD Bioscience) for 30 minutes at 4° C. in PBS with 1% saponin and analyzed by flow cytometry. Each condition is done in triplicate and results are expressed as the mean±SD. Intracellular IL10 mean fluorescence intensity (mfi) means across the differently activated monocytes are compared by one-way analysis of variance, the comparisons between CD4^+/CFSE^− and CD4^+/CFSE^+ cells are done with Student's t-test using Sigma Stat software (Systat Software).

For `CN(/N=C/c1ccc(OP2(Oc3ccc(/C=N/N(C)P(=S)(Oc4ccc(CCN(CP(=O)(O)O)CP(=O)(O)O)cc4)Oc4ccc(CCN(CP(=O)(O)O)CP(=O)(O)O)cc4)cc3)=NP(Oc3ccc(/C=N/N(C)P(=S)(Oc4ccc(CCN(CP(=O)(O)O)CP(=O)(O)O)cc4)Oc4ccc(CCN(CP(=O)(O)O)CP(=O)(O)O)cc4)cc3)(Oc3ccc(/C=N/N(C)P(=S)(Oc4ccc(CCN(CP(=O)(O)O)CP(=O)(O)O)cc4)Oc4ccc(CCN(CP(=O)(O)O)CP(=O)(O)O)cc4)cc3)=NP(Oc3ccc(/C=N/N(C)P(=S)(Oc4ccc(CCN(CP(=O)(O)O)CP(=O)(O)O)cc4)Oc4ccc(CCN(CP(=O)(O)O)CP(=O)(O)O)cc4)cc3)(c3ccc(/C=N/N(C)P(=S)(Oc4ccc(CCN(CP(=O)(O)O)CP(=O)(O)O)cc4)Oc4ccc(CCN(CP(=O)(O)O)CP(=O)(O)O)cc4)cc3)=N2)cc1)P(=S)(Oc1ccc(CCN(CP(=O)(O)O)CP(=O)(O)O)cc1)Oc1ccc(CCN(CP(=O)(O)O)CP(=O)(O)O)cc1` (centres unmarked) [Gc1], in test [1], the “CD4 T lymphocytes that have divided” value turned out to be 17.2%. Further, the “production of IL10 by divided CD4+ T cells in MLR with da-monocytes” value in test [2] was “significantly enhanced”.
